Read-outs that look alike come from different tables or passages of the source.
Tested on: Escherichia coli
Experiment: Quick-kill test (AATCC-100) on treated PP textile, Escherichia coli
Format: cell-based

Row | Compound | log-reduction / killing, E. coli (textile spray-treated with aqueous solution of unformulated biocide (2-3% w), 5 min, positive control) [log] | biocide activity against E. coli (textile spray-treated with aqueous solution of unformulated biocide (2-3% w), after 2 h) | log-reduction / killing, E. coli
1 | CCCCCCCCCCCCCCCC[N+](C)(C)C.[Cl-] [CTAC, cetyltrimethylammonium chloride] | 1.5 | very effective | –
2 | polyhexamethylenbiguanid [PHMB] | – | – | showed killing
